# The source made the active and inactive calls. No cut-off for these calls is given here. Where a SMILES comes first, the peptide text is derived from it. Bridges are numbered along the chain shown (N, C = ends).
# Legend:
# [1] = Antagonist activity at rat nAChR alpha7 M69V mutant expressed in xenopus oocytes assessed as inhibition of Ach- induced response at -70 mV holding potential preincubated for 5 mins followed by Ach stimulation by voltage-clamp based electrophysiological method; type: cell-based; conditions: Oocyte
# [2] = Antagonist activity at rat nAChR alpha7 A112S mutant expressed in xenopus oocytes assessed as inhibition of Ach- induced response at -70 mV holding potential preincubated for 5 mins followed by Ach stimulation by voltage-clamp based electrophysiological method; type: cell-based; conditions: Oocyte
# [3] = Antagonist activity at rat nAChR alpha7 R6K mutant expressed in xenopus oocytes assessed as inhibition of Ach- induced response at -70 mV holding potential preincubated for 5 mins followed by Ach stimulation by voltage-clamp based electrophysiological method; type: cell-based; conditions: Oocyte
# [4] = Antagonist activity at rat nAChR alpha7 N184S mutant expressed in xenopus oocytes assessed as inhibition of Ach- induced response at -70 mV holding potential preincubated for 5 mins followed by Ach stimulation by voltage-clamp based electrophysiological method; type: cell-based; conditions: Oocyte
# [5] = target: Nicotinic acetylcholine receptor alpha6/alpha3/beta4 (Homo sapiens, UniProt P30926+P32297+Q15825); test: Antagonist activity at rat alpha6/alpha3beta4 nAChR expressed in xenopus oocytes assessed as inhibition of Ach- induced response at -70 mV holding potential preincubated for 5 mins followed by Ach stimulation by voltage-clamp based electrophysiological method; type: cell-based, Oocyte
# [6] = target: Neuronal acetylcholine receptor; alpha3/beta2 (Rattus norvegicus, UniProt P04757+P12390); test: Antagonist activity at rat alpha3beta2 nAChR expressed in xenopus oocytes assessed as inhibition of Ach- induced response at -70 mV holding potential preincubated for 5 mins followed by Ach stimulation by voltage-clamp based electrophysiological method; type: cell-based, Oocyte
# [7] = target: Neuronal acetylcholine receptor; alpha4/beta2 (Rattus norvegicus) (UniProt P09483+P12390); test: Antagonist activity at rat alpha4beta2 nAChR expressed in xenopus oocytes assessed as inhibition of Ach- induced response at 10 uM at -70 mV holding potential preincubated for 5 mins followed by Ach stimulation by voltage-clamp based electrophysiological method; type: cell-based; conditions: Oocyte
# Sequence of Nicotinic acetylcholine receptor alpha6/alpha3/beta4 (P30926 whole entry): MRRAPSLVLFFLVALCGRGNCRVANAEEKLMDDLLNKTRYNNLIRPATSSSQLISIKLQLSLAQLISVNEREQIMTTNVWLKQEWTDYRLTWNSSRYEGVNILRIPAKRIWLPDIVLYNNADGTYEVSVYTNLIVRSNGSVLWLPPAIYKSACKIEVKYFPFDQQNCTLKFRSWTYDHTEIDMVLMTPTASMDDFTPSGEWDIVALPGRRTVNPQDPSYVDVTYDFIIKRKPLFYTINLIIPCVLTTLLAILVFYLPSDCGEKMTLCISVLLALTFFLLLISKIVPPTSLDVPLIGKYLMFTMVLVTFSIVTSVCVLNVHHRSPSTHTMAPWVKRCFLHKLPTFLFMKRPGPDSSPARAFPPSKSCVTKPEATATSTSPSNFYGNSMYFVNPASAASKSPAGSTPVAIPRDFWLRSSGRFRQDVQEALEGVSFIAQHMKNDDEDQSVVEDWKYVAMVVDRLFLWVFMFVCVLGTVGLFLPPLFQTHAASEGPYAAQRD
# Sequence of Nicotinic acetylcholine receptor alpha6/alpha3/beta4 (P32297 whole entry): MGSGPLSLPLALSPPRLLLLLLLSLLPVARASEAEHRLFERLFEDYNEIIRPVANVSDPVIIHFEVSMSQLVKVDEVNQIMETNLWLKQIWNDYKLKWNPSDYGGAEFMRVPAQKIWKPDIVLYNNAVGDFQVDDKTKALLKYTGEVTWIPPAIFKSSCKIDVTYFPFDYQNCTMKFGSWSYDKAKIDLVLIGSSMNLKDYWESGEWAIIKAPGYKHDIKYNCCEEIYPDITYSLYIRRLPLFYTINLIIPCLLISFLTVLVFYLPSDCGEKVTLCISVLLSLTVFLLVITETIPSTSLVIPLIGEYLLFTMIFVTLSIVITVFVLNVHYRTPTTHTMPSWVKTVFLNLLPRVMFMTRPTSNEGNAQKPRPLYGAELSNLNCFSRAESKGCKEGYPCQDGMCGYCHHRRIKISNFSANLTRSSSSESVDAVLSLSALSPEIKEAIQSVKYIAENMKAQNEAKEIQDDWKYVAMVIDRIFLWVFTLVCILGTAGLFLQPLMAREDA
# Sequence of Nicotinic acetylcholine receptor alpha6/alpha3/beta4 (Q15825 whole entry): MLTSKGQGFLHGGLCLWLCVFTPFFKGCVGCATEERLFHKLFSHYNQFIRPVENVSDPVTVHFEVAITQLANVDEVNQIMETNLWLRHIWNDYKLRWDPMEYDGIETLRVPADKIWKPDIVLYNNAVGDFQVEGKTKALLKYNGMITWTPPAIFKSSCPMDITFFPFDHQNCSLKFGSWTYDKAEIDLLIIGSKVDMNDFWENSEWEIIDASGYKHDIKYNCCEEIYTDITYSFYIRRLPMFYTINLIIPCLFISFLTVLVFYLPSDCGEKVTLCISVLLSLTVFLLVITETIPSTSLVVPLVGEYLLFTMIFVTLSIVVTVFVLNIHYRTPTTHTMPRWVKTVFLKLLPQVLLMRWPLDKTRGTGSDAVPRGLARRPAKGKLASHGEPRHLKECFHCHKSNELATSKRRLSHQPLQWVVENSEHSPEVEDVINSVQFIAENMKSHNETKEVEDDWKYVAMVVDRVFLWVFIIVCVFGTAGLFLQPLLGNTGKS
# Sequence of Neuronal acetylcholine receptor; alpha3/beta2 (P04757 whole entry): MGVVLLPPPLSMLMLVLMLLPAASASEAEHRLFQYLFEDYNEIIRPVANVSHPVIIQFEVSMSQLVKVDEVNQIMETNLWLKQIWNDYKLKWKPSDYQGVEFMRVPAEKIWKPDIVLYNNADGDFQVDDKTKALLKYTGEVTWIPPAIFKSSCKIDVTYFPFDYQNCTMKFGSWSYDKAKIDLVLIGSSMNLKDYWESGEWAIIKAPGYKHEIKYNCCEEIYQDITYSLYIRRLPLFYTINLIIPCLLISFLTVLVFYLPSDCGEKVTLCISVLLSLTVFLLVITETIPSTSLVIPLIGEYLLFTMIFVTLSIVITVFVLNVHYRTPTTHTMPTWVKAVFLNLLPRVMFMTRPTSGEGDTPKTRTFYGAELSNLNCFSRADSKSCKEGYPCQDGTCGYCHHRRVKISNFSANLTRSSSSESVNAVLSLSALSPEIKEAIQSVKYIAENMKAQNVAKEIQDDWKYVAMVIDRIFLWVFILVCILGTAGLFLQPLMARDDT
# Sequence of Neuronal acetylcholine receptor; alpha3/beta2 (P12390 whole entry): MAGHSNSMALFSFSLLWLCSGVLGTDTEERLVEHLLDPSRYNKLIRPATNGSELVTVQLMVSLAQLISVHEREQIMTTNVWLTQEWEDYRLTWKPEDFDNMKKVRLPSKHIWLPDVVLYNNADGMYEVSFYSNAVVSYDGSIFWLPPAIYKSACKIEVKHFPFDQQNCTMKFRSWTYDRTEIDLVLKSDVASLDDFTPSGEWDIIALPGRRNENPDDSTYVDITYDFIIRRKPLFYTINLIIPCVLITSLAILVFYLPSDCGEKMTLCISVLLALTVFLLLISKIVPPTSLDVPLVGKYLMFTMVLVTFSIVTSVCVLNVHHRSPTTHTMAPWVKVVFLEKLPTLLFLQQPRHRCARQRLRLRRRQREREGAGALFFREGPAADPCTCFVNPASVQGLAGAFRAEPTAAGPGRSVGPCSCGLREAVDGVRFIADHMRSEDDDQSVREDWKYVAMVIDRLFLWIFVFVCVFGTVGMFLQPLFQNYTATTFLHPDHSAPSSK
smiles,measurement,setting,value
"C[C@@H]1NC(=O)[C@@H]2CSSC[C@H](NC(=O)CN)C(=O)N[C@@H](CSSC[C@@H](C(N)=O)NC(=O)[C@H](Cc3cnc[nH]3)NC(=O)[C@H](CCC(=O)O)NC(=O)[C@H](Cc3cnc[nH]3)NC1=O)C(=O)N[C@@H](CO)C(=O)N[C@@H](CC(N)=O)C(=O)N1CCC[C@H]1C(=O)N1CCC[C@H]1C(=O)N2 (H-GCCSNPPCAHEHC-NH2; disulfide 2-8, 3-13)",IC50,[1],130 nM
same,IC50,[2],160 nM
same,IC50,[3],170 nM
same,IC50,[4],710 nM
same,IC50,[5],1410 nM
same,IC50,[6],350 nM
same,inhibition,[7],inactive
